Data published in ChEMBL document CHEMBL1201862, “PubChem BioAssay data set” (2004).
The source made the active and inactive calls.

Experiments:
[1] = tested on: HEK293; test: NOD1 signaling inhibitors, primary screen, cell-based, luminescence, uHTS (AID 1578); format: functional; details: Homo sapiens
[2] = tested on: A-375; test: A375 melanoma cell viability reduction, dose response, counter-screen for MITF modulator project, cherry-pick samples, set 2 (AID 540335); format: functional, cell-based; details: Homo sapiens
[3] = tested on: HEK293; test: cells; format: functional, cell-based; details: Homo sapiens
[4] = target: T1, Microphthalmia-associated transcription factor (Homo sapiens, UniProt O75030); test: TRPM1 promoter luciferase signal decrease, dose response, MITF inhibitor project, cell-based, SK-MEL-5, cherry-picked, set 3 (AID 493073); format: functional
T1 sequence (O75030 whole entry): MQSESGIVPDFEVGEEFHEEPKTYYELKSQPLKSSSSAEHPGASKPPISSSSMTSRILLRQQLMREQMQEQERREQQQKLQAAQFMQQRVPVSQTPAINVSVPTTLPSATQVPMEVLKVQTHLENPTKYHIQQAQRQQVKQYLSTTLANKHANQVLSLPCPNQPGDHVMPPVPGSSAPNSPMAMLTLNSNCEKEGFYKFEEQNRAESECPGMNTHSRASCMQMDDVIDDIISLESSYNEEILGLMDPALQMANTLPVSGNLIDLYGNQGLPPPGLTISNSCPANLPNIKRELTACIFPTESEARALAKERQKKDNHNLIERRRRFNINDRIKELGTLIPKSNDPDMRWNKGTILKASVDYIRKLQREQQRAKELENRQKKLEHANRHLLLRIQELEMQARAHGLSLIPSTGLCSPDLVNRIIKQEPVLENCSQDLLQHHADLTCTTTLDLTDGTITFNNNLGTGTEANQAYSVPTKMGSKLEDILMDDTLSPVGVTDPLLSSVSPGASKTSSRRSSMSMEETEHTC

[5] = tested on: Streptococcus sp. 'group A'; test: growth inhibition of control SK(-) GAS strain, dose response, counter-screen for streptokinase expression inhibitor project, luminescence, kanamycin, BacTiterGlo, confirmation (AID 1900); format: functional, organism-based
[6] = A Cell Based Secondary Assay To Explore Cytotoxicity of Compounds that Sensitize Mycobacterium Tuberculosis to Beta-Lactam Antibiotics.; format: functional
[7] = target: Paired box protein Pax-8 (Homo sapiens, UniProt Q06710); test: inhibitors of PAX8-driven TPO luciferase reporter, dose response, RMG-I cells, cherry-pick (AID 687027); format: functional, cell-based;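 note: luciferase reporter driven by Pax8 target thyroperoxidase promoter measured by SteadyGlo luminescence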
[8] = cytotoxicity in HEK-293T cells, dose response, cytotoxicity control for TCR NF-kB inhibitor project, luminescence, T-cell screen hits (AID 489026); format: functional, cell-based;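 note: cells exposed to compound about 14 hours before the viability readout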
[9] = tested on: BJ; test: cytotoxicity toward Ras-transformed BJeLR fibroblasts, dose response, cell-based, alamar blue fluorescence, cherrypicked samples (AID 2631); format: functional; details: Homo sapiens;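 note: confirmatory dose-response assay in RAS-dependent BJ fibroblasts engineered with TERT, LT and ST, with cytotoxicity read by fluorescence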
[10] = tested on: BJ; test: cytotoxicity toward BJ-TERT-LT-ST fibroblasts, dose response, cell-based, RAS-independent, luminescence (AID 1935); format: functional; details: Homo sapiens;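 note: BJ fibroblasts immortalized with TERT plus LT and ST oncogenes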
[11] = tested on: Streptococcus; test: Group A Streptococcus viability loss, dose response, counter-screen for streptokinase expression inhibitor project, luminescence, BacTiterGlo (AID 1915); format: functional, organism-based;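 note: potency for reduction of bacterial viability or growth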
[12] = tested on: HEK293; test: cells; format: functional, cell-based; details: Homo sapiens; remark: listed apart in the source
[13] = tested on: HEK293; test: NOD2 signaling inhibitors in MDP-stimulated cells, cell-based, uHTS, luminescence (AID 2001); format: functional; details: Homo sapiens
[14] = tested on: BJ; test: cytotoxicity toward BJ-TERT fibroblasts, dose response, cell-based, RAS-independent, luminescence (AID 1933); format: functional; details: Homo sapiens
[15] = tested on: BJ; test: cells; format: functional, cell-based; details: Homo sapiens
[16] = cytotoxicity toward DRD oncogenic fibroblasts, dose response, cell-based, non-viral oncogenic, luminescence (AID 1934); format: functional; details: Homo sapiens
[17] = cytotoxicity in NIH/3T3 mouse fibroblasts, dose response, cytotoxicity control, cell-based, mouse embryonic fibroblasts, dry powder, set 2 (AID 493247); format: functional; details: Fibroblast
[18] = tested on: Trypanosoma cruzi; test: growth inhibition of intracellular Trypanosoma cruzi, dose response, cell-based, plate reader, dry powder, set 3 (AID 493197); format: functional
[19] = inhibitors of Trypanosoma cruzi host-cell infection, confirmation, beta-gal luminescence, NIH3T3 host cells (AID 2630); format: functional, cell-based; details: Mus musculus
[20] = target: T2, Hexokinase HKDC1 (Homo sapiens, UniProt Q2TB90); test: HKDC1 hexokinase inhibitors, SAR follow-up, biochemical, set 2 (AID 588355); format: functional
T2 sequence (Q2TB90 whole entry): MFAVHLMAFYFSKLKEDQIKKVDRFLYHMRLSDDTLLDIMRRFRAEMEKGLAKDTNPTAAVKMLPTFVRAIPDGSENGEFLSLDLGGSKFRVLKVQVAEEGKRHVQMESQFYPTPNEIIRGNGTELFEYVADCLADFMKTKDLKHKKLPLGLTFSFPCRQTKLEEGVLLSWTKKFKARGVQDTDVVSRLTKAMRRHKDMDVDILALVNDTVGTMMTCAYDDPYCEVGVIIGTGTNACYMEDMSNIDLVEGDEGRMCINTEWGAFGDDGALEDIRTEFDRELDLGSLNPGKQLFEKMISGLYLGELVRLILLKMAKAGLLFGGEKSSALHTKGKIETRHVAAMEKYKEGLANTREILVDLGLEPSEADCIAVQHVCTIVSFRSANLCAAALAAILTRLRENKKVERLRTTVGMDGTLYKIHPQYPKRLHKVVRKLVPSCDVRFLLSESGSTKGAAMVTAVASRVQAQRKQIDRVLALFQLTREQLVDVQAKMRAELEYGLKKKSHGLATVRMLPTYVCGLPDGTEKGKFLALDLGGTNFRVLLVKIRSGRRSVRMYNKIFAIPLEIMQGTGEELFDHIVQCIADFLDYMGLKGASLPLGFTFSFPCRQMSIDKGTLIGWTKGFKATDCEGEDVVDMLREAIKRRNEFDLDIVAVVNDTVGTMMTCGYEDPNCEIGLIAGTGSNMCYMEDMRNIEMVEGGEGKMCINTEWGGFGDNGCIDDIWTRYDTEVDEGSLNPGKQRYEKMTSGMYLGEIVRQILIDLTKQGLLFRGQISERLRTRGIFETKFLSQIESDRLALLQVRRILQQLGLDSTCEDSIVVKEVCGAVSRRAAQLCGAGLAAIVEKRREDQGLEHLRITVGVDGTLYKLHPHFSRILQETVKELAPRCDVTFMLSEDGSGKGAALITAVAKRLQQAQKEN

[21] = target: T3, Hexokinase-1 (Homo sapiens, UniProt P19367); test: HK1 enzyme inhibition by HKDC1 hits, SAR follow-up, selectivity assay for HKDC1 inhibitor project, biochemical, set 2, resazurin fluorescence coupled readout (AID 588356); format: functional
T3 sequence (P19367 whole entry): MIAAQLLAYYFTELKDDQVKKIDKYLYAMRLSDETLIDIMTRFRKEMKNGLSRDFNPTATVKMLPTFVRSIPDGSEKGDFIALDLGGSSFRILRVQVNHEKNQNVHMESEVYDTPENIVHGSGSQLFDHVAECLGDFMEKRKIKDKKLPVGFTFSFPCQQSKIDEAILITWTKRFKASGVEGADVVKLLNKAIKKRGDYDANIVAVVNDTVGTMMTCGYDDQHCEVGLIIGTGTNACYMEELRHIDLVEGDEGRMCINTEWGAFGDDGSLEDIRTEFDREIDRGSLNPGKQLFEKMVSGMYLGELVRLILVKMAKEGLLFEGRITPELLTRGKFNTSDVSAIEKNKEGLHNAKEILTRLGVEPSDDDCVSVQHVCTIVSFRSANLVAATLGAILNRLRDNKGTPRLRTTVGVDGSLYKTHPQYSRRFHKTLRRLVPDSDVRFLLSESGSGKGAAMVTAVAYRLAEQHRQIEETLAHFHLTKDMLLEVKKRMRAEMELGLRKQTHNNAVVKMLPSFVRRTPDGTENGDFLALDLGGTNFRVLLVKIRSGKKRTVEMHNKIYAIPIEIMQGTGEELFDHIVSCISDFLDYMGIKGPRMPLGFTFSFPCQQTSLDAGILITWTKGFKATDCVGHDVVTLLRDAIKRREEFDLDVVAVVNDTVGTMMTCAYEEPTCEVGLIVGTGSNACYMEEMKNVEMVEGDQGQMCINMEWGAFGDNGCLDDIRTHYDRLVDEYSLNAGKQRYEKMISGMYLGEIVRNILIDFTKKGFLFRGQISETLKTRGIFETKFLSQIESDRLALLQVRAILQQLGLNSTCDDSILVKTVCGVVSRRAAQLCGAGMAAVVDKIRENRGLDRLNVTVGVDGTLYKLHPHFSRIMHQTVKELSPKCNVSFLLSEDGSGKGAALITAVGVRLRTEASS

[22] = target: Voltage-gated inwardly rectifying potassium channel KCNH2 (Homo sapiens, UniProt Q12809); details: Potency;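 note: confirmatory quantitative high-throughput screen measuring inhibition of hERG channel activity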
Sequence of Voltage-gated inwardly rectifying potassium channel KCNH2 (Q12809 whole entry): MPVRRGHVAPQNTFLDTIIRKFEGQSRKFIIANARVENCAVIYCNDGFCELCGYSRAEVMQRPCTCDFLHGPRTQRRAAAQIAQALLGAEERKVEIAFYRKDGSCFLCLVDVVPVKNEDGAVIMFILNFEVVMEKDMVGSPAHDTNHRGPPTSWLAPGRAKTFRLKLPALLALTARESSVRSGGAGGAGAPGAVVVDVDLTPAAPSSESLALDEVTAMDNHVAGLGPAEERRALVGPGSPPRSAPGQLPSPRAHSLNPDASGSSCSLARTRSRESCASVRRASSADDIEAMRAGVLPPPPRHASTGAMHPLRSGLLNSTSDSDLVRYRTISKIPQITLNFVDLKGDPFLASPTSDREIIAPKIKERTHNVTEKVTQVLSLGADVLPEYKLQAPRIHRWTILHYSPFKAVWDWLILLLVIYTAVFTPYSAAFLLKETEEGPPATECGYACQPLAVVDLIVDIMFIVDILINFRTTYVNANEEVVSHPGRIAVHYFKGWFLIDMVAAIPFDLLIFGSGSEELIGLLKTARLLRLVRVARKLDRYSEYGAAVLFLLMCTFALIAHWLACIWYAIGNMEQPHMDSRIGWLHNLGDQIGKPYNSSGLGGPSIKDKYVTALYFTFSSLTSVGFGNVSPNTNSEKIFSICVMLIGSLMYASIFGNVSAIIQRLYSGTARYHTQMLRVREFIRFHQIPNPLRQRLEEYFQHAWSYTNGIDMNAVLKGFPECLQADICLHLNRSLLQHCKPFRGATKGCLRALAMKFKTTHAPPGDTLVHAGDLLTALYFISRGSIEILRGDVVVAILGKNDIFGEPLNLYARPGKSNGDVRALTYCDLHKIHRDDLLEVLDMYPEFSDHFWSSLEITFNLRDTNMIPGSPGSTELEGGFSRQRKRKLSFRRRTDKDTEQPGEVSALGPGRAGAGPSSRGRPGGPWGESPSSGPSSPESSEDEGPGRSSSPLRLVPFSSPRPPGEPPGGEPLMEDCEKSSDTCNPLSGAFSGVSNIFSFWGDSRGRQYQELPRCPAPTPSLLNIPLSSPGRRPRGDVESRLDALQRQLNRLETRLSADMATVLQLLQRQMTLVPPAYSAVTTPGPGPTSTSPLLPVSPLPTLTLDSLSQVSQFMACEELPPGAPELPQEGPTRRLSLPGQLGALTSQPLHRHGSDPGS

Sequence of Paired box protein Pax-8 (Q06710 whole entry): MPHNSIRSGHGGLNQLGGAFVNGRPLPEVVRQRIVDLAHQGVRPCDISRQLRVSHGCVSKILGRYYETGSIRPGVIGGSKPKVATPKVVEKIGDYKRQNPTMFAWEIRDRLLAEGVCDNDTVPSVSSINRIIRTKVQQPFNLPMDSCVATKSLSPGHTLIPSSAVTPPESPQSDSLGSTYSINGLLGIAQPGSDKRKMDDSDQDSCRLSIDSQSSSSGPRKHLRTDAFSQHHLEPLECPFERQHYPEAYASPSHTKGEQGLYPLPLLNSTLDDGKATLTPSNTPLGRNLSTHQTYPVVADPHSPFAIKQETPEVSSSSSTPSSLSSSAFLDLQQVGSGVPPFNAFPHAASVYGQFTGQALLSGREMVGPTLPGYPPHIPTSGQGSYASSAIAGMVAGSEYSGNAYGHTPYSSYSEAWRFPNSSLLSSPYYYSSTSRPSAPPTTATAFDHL

COc1ccc2c(C)nc(Nc3nc(O)cc(-c4ccccc4)n3)nc2c1
EC50 [1]: > 20 µM (inactive)
IC50 [3]: > 20 µM (inactive)
AC50 [4]: 2.91 µM (active)
EC50 [5]: 2.96 µM (active)
CC50 [6]: > 40 µM (active)
AC50 [7]: 2.61 µM (active)
IC50 [8]: > 80 µM (inactive)
EC50 [9]: 1.6 µM (active)
EC50 [10]: 2.14 µM (active)
EC50 [11]: 2.73 µM (active)
IC50 [12]: 1.73 µM (active)
IC50 [13]: 2.37 µM (active)
EC50 [14]: 3.18 µM (inconclusive)
EC50 [15]: 21 µM (active)
EC50 [16]: 2.8 µM (active)

COc1ccccc1CN1CCCC(C(=O)N(C)Cc2ccccc2)C1 (configuration not stated)
AC50 [17]: 73.3 µM (active)
AC50 [18]: 10.8 µM (active)
EC50 [19]: 0.856 µM (active)

COc1cccc(N2C(=O)c3cccnc3C2Nc2ccc(C)c(C)c2)c1 (configuration not stated)
IC50 [20]: > 80 µM (inactive)
IC50 [21]: > 80 µM (inactive)

CC(C)(C)c1ccc(S(=O)(=O)/C=C/C#N)cc1 [BAY-11-7085]
AC50 [22]: 35.5 µM (inconclusive)
